From patent US20050043331A1, “Substituted 3-(2,5-disubstituted)pyridyl-4-aryl pyrroles for treating inflammatory diseases” (priority 2002, published 2005) come the findings set out here.

In assay [1] the test system is TNF-α. The assay can be described thus: In-vitro whole cell assay for TNF-α inhibition (LPS-stimulated PBMC, ELISA). In kind it is cell-based. To be noted: TNF-α by ELISA. In outline:
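Read-out: ELISA for TNF-α in supernatants after overnight 37° C LPS challenge (stock 200 ng/mL, RPMI/1% FCS). Cells: Ficoll-isolated human PBMC at 1.67×10^6/mL, exposed to test compound for 1 h at 37° C beforehand. Run in duplicate.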

Assay [2] has as its target T1, P38 (Homo sapiens, UniProt Q16539). The assay can be described thus: P38 cell, 1 μM LJ. The assay is classed as cell-based. More on the design: unit not given here.
In assay [3] the target is T1, P38. Briefly: p38 inhibition in-vitro enzyme assay. The assay is classed as biochemical. The conditions noted are these: recombinant 6×His-p38. As to the method: Purified recombinant 6×His-p38 and GST-ATF2 (both expressed in Baculovirus) were served as enzyme and substrate in our p38 inhibition assay. The enzyme reaction was performed in the anti-GST antibody pre-coated 96-well ELISA plate.
A 96-well ELISA plate was coated with 100 μl/well of anti-GST antibody (from Amersham) at a concentration of […] and incubated overnight at 4° C. The ELISA plate was blocked with 100 μl/well of 1% BSA at 25° C. for at least 2 hours, then the plate was washed with 300 μl PBST. The enzyme reaction was started by adding 10 μl of p38 recombinant protein (0.05 nM in final concentration), 10 μl of compound in desired concentration, 10 μl of substrates (670 μM ATP, 200 nM GST-ATF2 in final concentration) and 70 μl of reaction buffer (50 mM HEPES, pH 7.4, 100 mM NaCl, 10 mM MgCl2) and the mixture was incubated at 37° C. for 30 min. Washing the reaction plate with 3×300 μl/well of PBST stopped the enzyme reaction. Detection of the phosphorylated ATF2 substrate was done by the addition of 100 μl of anti-Pi-ATF2 antibody (from Cell Signaling) at a 1:200 dilution. The mixture was incubated at 25° C. for 30 min. A solution of 100 μl of HRP-conjugated goat anti-rabbit antibody (from Pierce) at a 1:250 dilution was added and the mixture and incubated at 25° C. for 30 min. The plate was washed with 6×300 μI PBST and 100 μl of OPD substrate (from Sigma) was then added. The mixture was incubated at 25° C. for 10 min. before adding 100 μl of 3 N H2SO4. The plate was read at 490 nm.
The % inhibition of each test compound was calculated by the following formula: % inhibition=[1−(sample−BKG)/(CTRL−BKG)]×100. The IC50 of each test compound was determined by a triplicate-8 point dose titration curve by Prism GraphPad program. […]

The subject of assay [4] is TNF-α. Briefly: In vivo rodent assay for inhibition of LPS-induced TNF-α production. To be noted: Mus musculus, po, 0.5 h, 10 mg/kg oral, 0.5 h, read-out: Mouse 10 mg/kg % inhib 0.5 h. More on the design: species or system Mice (BALB/cJ females). In outline:
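Female BALB/cJ mice or male Lewis rats, fasted 30 min, received compound orally (mg/kg) at various times before intraperitoneal LPS at 1 mg/kg. Blood was collected by cardiac puncture 1 h after LPS, and serum TNF-α was quantified by species-specific ELISA.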

SMILES strings stand for the structures.

T1 sequence (Q16539 whole entry): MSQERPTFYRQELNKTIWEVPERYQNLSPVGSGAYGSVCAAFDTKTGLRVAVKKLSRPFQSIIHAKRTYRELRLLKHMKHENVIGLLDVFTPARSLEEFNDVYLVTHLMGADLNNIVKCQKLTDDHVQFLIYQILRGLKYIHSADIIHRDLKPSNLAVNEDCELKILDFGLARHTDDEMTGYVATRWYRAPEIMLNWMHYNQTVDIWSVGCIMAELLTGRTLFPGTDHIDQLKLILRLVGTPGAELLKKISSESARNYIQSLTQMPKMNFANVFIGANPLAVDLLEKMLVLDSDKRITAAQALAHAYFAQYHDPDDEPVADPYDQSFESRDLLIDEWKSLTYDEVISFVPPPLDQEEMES

For orientation: IC50 means the concentration that gives 50% inhibition. In the case of `CCOC(=O)c1[nH]cc(-c2ccncc2)c1-c1cc(F)cc(F)c1` [Cpd 62], the results for the IC50 in assay [1] and in assay [3] were 114 nM and 3470 nM, respectively. Besides, the “P38 cell 1 μM LJ” value in assay [2] is recorded as 0. Further, the inhibition in vivo at 10 mg/kg in assay [4] is -14%.
On the same counts, the results for `CCOC(=O)c1c(-c2cccc(C(F)(F)F)c2)c(-c2ccncc2)c(N2CCNCC2)n1C` [Cpd 104] are 21 nM, greater than 10000 nM, 11 and 83%.
Turning to `CCOC(=O)c1c(-c2cc(F)cc(F)c2)c(-c2ccncc2)cn1C` [Cpd 64], the IC50 in assay [1] was 33 nM; in assay [3], 8690 nM. Besides, in assay [2], the “P38 cell 1 μM LJ” value is on record as 7. Moreover, in assay [4], the inhibition in vivo at 10 mg/kg is -31%.
`COC(=O)c1c(-c2ccc(F)cc2)c(-c2ccncc2)c(N2CCc3ccccc3C2)n1C` [Cpd 93]: the half-inhibitory concentration (IC50) is 66 nM in assay [1] and greater than 10000 nM in assay [3]. Besides, the “P38 cell 1 μM LJ” value in assay [2] was 20. Further, the inhibition in vivo at 10 mg/kg in assay [4] was 32%.
